test system: γ-secretase activity; assay: Screening for γ-secretase-modulating activity in SKN neuroblastoma cells carrying APP swedish mutant; type: cell-based; conditions: read-out: IC50 on the γ-secretase activity, Activity range
Experimental: Screening was carried out using SKN neuroblastoma cells carrying the APP-“swedish mutant” (point mutations at position 595 and 596, numbering based on APP695) grown in DMEM/NUT-mix F12 (HAM) provided by Gibco (cat no. 31330-38) containing 5% Serum/Fe supplemented with 1% non-essential amino acids, 100 U/ml Pen/Strep.
Cells were grown to near confluency.
The screening was performed using the assay as described in Citron et al (1997) Nature Medicine 3: 67.
IC50-Values of Selected Compounds of the Invention on the γ-Secretase Activity.

| Compound | IC50 |
| --- | --- |
| O=C(O)Cc1cc(OCC2CCCCO2)cc(-c2ccc(C(F)(F)F)cc2)c1 (centres unmarked) [LII, [5-(Tetrahydro-pyran-2-ylmethoxy)-4′-trifluoromethyl-biphenyl-3-yl]-acetic acid] | 100 to 300 µM |
| CN(C)C(=O)c1ccc(COc2cc(CC(=O)O)cc(-c3ccc(C(F)(F)F)cc3)c2)cc1 [LIII, [5-(4-Dimethylcarbamoyl-benzyloxy)-4′-trifluoromethyl-biphenyl-3-yl]-acetic acid] | 100 to 300 µM |
| CNC(=O)c1ccc(COc2cc(CC(=O)O)cc(-c3ccc(C(F)(F)F)cc3)c2)cc1 [LIV, [5-(4-Methylcarbamoyl-benzyloxy)-4′-trifluoromethyl-biphenyl-3-yl]-acetic acid] | 100 to 300 µM |
| O=C(O)Cc1cc(OCc2ccc(S(=O)(=O)N3CCOCC3)cc2)cc(-c2ccc(C(F)(F)F)cc2)c1 [LVI, {5-[4-(Morpholine-4-sulfonyl)-benzyloxy]-4′-trifluoromethyl-biphenyl-3-yl}-acetic acid] | 10 to 100 µM |
| COc1cccc(-c2cc(CC(=O)O)cc(OCc3ccccc3)c2)c1 [XIV, (5-benzyloxy-3′-methoxy-biphenyl-3-yl)-acetic Acid] | 10 to 100 µM |
| Cc1cc(COc2cc(CC(=O)O)cc(-c3ccc(C(F)(F)F)cc3)c2)no1 [XLIII, [5-(5-Methyl-isoxazol-3-ylmethoxy)-4′-trifluoromethyl-biphenyl-3-yl]-acetic acid] | 10 to 100 µM |
| O=C(O)Cc1cc(OCC2CCOCC2)cc(-c2ccc(C(F)(F)F)cc2)c1 [XLV, [5-(Tetrahydro-pyran-4-ylmethoxy)-4′-trifluoromethyl-biphenyl-3-yl]-acetic acid] | 10 to 100 µM |
| O=C(O)Cc1cc(OCc2ccc(C(=O)N3CCOCC3)cc2)cc(-c2ccc(C(F)(F)F)cc2)c1 [XLVIII, {5-[4-(Morpholine-4-carbonyl)-benzyloxy]-4′-trifluoromethyl-biphenyl-3-yl}-acetic acid] | 10 to 100 µM |
| NC(=O)c1cccc(-c2cc(CC(=O)O)cc(OCc3ccccc3)c2)c1 [XV, (5-benzyloxy-3′-carbamoyl-biphenyl-3-yl)-acetic Acid] | 10 to 100 µM |
| O=C(O)Cc1cc(OCc2ccccc2)cc(-c2cccc(O)c2)c1 [XVI, (5-benzyloxy-3′-hydroxy-biphenyl-3-yl)-acetic Acid] | 10 to 100 µM |
| CS(=O)(=O)c1ccc(-c2cc(CC(=O)O)cc(OCc3ccccc3)c2)cc1 [XVII, (5-benzyloxy-4′-methanesulfonyl-biphenyl-3-yl)-acetic Acid] | 10 to 100 µM |
| NS(=O)(=O)c1ccc(-c2cc(CC(=O)O)cc(OCc3ccccc3)c2)cc1 [XVIII, (5-benzyloxy-4′-sulfamoyl-biphenyl-3-yl)-acetic Acid] | 10 to 100 µM |
| O=C(O)Cc1cc(OCc2ccccc2)cc(-c2ccc(F)cc2)c1 [XXII, (5-Benzyloxy-4′-fluoro-biphenyl-3-yl)-acetic acid] | 10 to 100 µM |
| CC(=O)Nc1ccc(-c2cc(CC(=O)O)cc(OCc3ccccc3)c2)cc1 [XXIV, (4′-Acetylamino-5-benzyloxy-biphenyl-3-yl)-acetic acid] | 100 to 300 µM |
| COc1ccc(-c2cc(CC(=O)O)cc(OCc3ccccc3)c2)cc1 [XXIX, (5-Benzyloxy-4′-methoxy-biphenyl-3-yl)-acetic acid] | 10 to 100 µM |
| O=C(O)Cc1cc(OCc2ccccc2)cc(-c2ccc(O)cc2)c1 [XXV, (5-Benzyloxy-4′-hydroxy-biphenyl-3-yl)-acetic acid] | 100 to 300 µM |
| CC(C)Oc1ccc(-c2cc(CC(=O)O)cc(OCc3ccccc3)c2)cc1 [XXVI, (5-Benzyloxy-4′-isopropoxy-biphenyl-3-yl)-acetic acid] | 10 to 100 µM |
| O=C(O)Cc1cc(OCc2ccccc2)cc(-c2cc(F)cc(F)c2)c1 [XXVII, (5-Benzyloxy-3′,5′-difluoro-biphenyl-3-yl)-acetic acid] | 10 to 100 µM |
| CC(C)Oc1cccc(-c2cc(CC(=O)O)cc(OCc3ccccc3)c2)c1 [XXVIII, (5-Benzyloxy-3′-isopropoxy-biphenyl-3-yl)-acetic acid] | 10 to 100 µM |
| COc1ccccc1-c1cc(CC(=O)O)cc(OCc2ccccc2)c1 [XXX, (5-Benzyloxy-2′-methoxy-biphenyl-3-yl)-acetic acid] | 10 to 100 µM |

Further lines, results first:

| IC50 | Compound |
| --- | --- |
| 1 to 10 µM | CC(C)c1ccc(COc2cc(CC(=O)O)cc(-c3ccc(C(F)(F)F)cc3)c2)cc1 [II, [5-(4-Isopropyl-benzyloxy)-4′-trifluoromethyl-biphenyl-3-yl]-acetic acid] |
| 10 to 100 µM | CS(=O)(=O)c1ccc(COc2cc(CC(=O)O)cc(-c3ccc(C(F)(F)F)cc3)c2)cc1 [IV, [5-(4-Methanesulfonyl-benzyloxy)-4′-trifluoromethyl-biphenyl-3-yl]-acetic acid] |
| 1 to 10 µM | O=C(O)Cc1cc(OCc2ccccc2C(F)(F)F)cc(-c2ccc(C(F)(F)F)cc2)c1 [L, [4′-Trifluoromethyl-5-(2-trifluoromethyl-benzyloxy)-biphenyl-3-yl]-acetic acid] |
| 1 to 10 µM | O=C(O)Cc1cc(OCCc2ccccc2)cc(-c2ccc(C(F)(F)F)cc2)c1 [LI, (5-Phenethyloxy-4′-trifluoromethyl-biphenyl-3-yl)-acetic acid] |
| 1 to 10 µM | O=C(O)Cc1cc(OCc2cccc(Cl)c2)cc(-c2ccc(C(F)(F)F)cc2)c1 [LIX, [5-(3-Chloro-benzyloxy)-4′-trifluoromethyl-biphenyl-3-yl]-acetic acid] |
| 10 to 100 µM | O=C(O)Cc1cc(OCc2ccc(C(=O)N3CCCC3)cc2)cc(-c2ccc(C(F)(F)F)cc2)c1 [LV, {5-[4-(Pyrrolidine-1-carbonyl)-benzyloxy]-4′-trifluoromethyl-biphenyl-3-yl}-acetic acid] |
| 1 to 10 µM | O=C(O)Cc1cc(OCc2ccc(OC(F)(F)F)cc2)cc(-c2ccc(C(F)(F)F)cc2)c1 [LVII, [5-(4-Trifluoromethoxy-benzyloxy)-4′-trifluoromethyl-biphenyl-3-yl]-acetic acid] |
| 1 to 10 µM | O=C(O)Cc1cc(OCc2ccccc2Cl)cc(-c2ccc(C(F)(F)F)cc2)c1 [LVIII, [5-(2-Chloro-benzyloxy)-4′-trifluoromethyl-biphenyl-3-yl]-acetic acid] |
| 1 to 10 µM | Cc1ccc(COc2cc(CC(=O)O)cc(-c3ccc(C(F)(F)F)cc3)c2)cc1 [LX, [5-(4-Methyl-benzyloxy)-4′-trifluoromethyl-biphenyl-3-yl]-acetic acid] |
| 1 to 10 µM | O=C(O)Cc1cc(OCc2ccccc2)cc(-c2ccccc2)c1 [VII, (5-Benzyloxy-biphenyl-3-yl)-acetic acid] |
| 1 to 10 µM | O=C(O)Cc1cc(OCc2ccccc2)cc(-c2cc(C(F)(F)F)cc(C(F)(F)F)c2)c1 [XI, (5-Benzyloxy-3′,5′-bis-trifluoromethyl-biphenyl-3-yl)-acetic acid] |
| 1 to 10 µM | O=C(O)Cc1cc(OCc2ccccc2)cc(-c2ccc(Cl)c(Cl)c2)c1 [XII, (5-Benzyloxy-3′,4′-dichloro-biphenyl-3-yl)-acetic acid] |
| 1 to 10 µM | O=C(O)Cc1cc(OCc2ccc(Cl)cc2)cc(-c2ccc(C(F)(F)F)cc2)c1 [XLI, [5-(4-Chloro-benzyloxy)-4′-trifluoromethyl-biphenyl-3-yl]-acetic acid] |
| 1 to 10 µM | O=C(O)Cc1cc(OCc2cccc(C(F)(F)F)c2)cc(-c2ccc(C(F)(F)F)cc2)c1 [XLIX, [4′-Trifluoromethyl-5-(3-trifluoromethyl-benzyloxy)-biphenyl-3-yl]-acetic acid] |
| 1 to 10 µM | O=C(O)Cc1cc(OCc2ccccc2)cc(-c2ccc(Cl)cc2)c1 [XXIII, (5-Benzyloxy-4′-chloro-biphenyl-3-yl)-acetic acid] |

From patent US7825160B2, “(Biphenyl) carboxylic acids and derivatives thereof” (Cellzome Limited, priority 2004, dated 2010)
